Legend:
[1] = system: microtubule (HeLa human cervical cancer cells); test: Fluorescence bio-imaging of microtubule in fixed HeLa cells pre-treated with Docetaxel-TCO conjugate; format: cell-based
Protocol: (§1) The fluorescence imaging test was performed using a DeltaVision Elite imaging system of GE Healthcare, and an Olympus IX-71 microscope was used.
Docetaxel-TCO conjugate (Dox-TCO) was used for fluorescence bio-imaging of microtubule. HeLa human cervical cancer cells were fixed, and cultured with Dox-TCO for 1 hour, and then washed with PBS.

[2] = system: mitochondria (HeLa cells); test: Fluorescence imaging of mitochondria in living HeLa cells pre-treated with TPP-TCO; format: cell-based, human
Protocol: as §1
In order to confirm the fluorescence imaging of mitochondria in living cells, it was tested by the following method.
HeLa cells were incubated for 1 hour in the presence or absence of triphenylphosphonium (TPP)-TCO, and then HeLa cells were washed and treated with the compound of Example 5 or Example 6.
In addition, in order to confirm the selectivity of TPP-TCO and Example 5, and TPP-TCO and Example 6 for mitochondria, HeLa cells were treated with MitoTracker Deep Red, a mitochondria coloring dye, As a result, it was observed that the position of the fluorescence signal of MitoTracker Deep Red was consistent with that of Example 5 or Example 6.

Cc1nnc(-c2ccn3c4c(c(-c5ccccc5)c3c2)CN(CCCN2CCN(CCC(=O)O)CC2)C4=O)nn1 [Example 5, 3-(4-(3-(7-(6-methyl-1,2,4,5-tetrazin-3-yl)-3-oxo-9-phenyl-1,3-dihydro-2H-pyrrolo[3,4-b]indolizin-2-yl)propyl)piperazin-1-yl)propanoic acid]
fluorescence signal on addition to cells ([1]; fixed HeLa cells cultured with Dox-TCO for 1 hour, washed with PBS): a bright fluorescence signal was generated
specificity of staining, immunofluorescence with α-tubulin antibody ([1]; fixed HeLa cells, Dox-TCO): microtubule specific staining
position of fluorescence signal versus MitoTracker Deep Red ([2]; HeLa cells, TPP-TCO and compound): consistent
fluorescence mitochondria image ([2]; living HeLa cells treated with TPP-TCO for 1 hour, then compound): a clear fluorescence mitochondria image was observed
fluorescence expression intensity in the extracellular region ([2]; living HeLa cells treated with TPP-TCO, then compound): 0

From patent publication US11584749B2, “Phosphor-tetrazine compound and use thereof” (Spark Biopharma, Inc., priority 2018, dated 2023)
